The results in this text go back to publication PMC3274540 (PLoS ONE, 2012).

One assay deals with T1, ERα (Homo sapiens, UniProt P03372).
T1 construct: gene ESR1; recombinant
T1 sequence (P03372 1-595): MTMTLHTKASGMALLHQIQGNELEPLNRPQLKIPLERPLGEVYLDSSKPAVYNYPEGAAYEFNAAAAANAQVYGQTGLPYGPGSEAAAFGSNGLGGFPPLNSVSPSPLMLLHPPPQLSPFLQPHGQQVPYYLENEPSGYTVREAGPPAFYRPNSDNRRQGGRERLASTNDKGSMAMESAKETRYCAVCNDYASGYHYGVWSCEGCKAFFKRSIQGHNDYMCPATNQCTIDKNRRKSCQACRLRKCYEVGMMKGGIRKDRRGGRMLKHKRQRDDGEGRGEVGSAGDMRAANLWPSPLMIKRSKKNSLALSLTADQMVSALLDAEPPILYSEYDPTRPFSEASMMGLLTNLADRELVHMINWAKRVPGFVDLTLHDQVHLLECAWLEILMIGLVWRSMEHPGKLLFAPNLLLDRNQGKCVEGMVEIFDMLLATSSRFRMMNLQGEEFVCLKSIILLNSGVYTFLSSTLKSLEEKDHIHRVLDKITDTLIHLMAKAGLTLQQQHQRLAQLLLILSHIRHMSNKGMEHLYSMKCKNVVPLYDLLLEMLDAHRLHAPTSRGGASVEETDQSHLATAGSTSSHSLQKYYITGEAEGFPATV
The experiment in a line: fluorescence polarization competition binding assay.

The target of another assay is T2, ERβ (Homo sapiens, UniProt Q92731).
T2 construct: gene ESR2; recombinant
T2 sequence (Q92731 whole entry): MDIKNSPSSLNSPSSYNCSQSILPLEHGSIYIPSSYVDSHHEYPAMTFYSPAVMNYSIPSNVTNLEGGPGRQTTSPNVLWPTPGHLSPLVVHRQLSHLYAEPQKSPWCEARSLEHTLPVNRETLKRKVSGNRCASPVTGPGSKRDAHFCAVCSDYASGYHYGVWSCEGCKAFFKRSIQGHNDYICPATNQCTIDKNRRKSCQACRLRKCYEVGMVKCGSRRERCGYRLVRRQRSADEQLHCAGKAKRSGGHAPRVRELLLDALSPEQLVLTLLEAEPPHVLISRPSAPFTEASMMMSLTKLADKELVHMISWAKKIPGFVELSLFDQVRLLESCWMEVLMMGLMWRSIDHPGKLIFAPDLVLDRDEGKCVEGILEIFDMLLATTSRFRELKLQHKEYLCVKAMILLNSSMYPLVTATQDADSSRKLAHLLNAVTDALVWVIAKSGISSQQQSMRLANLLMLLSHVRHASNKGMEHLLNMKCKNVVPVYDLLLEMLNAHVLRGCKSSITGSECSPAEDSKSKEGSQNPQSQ
The description is as above.

One may read the IC50 as the midpoint of a concentration-inhibition curve. On to `COc1ccc([C@@H](C)C(=O)c2ccc(O)cc2O)cc1` [angolensin, 1-(2,4-dihydroxyphenyl)-2-(4-methoxyphenyl)propan-1-one], for which the IC50 at ERα came out at 2.2 µM; on ERβ it was 4.7 µM.
For `O=c1cc(-c2ccc(O)cc2)oc2cc(O[C@@H]3O[C@H](CO)[C@@H](O)[C@H](O)[C@H]3O)cc(O)c12` [cosmosiin, 5-hydroxy-2-(4-hydroxyphenyl)-7-[(2S,3R,4S,5S,6R)-3,4,5-trihydroxy-6-(hydroxymethyl)oxan-2-yl]oxychromen-4-one], in that order: 15.9 µM and 3.3 µM.
